Changes are numbered by the printed parent chain. “Also recorded” adds a separate entry of the source.
Legend:
[1] = in vivo; cited from earlier work
thrombus formation = settings: mice; given the day before and 2 hours prior; cited from earlier work
GPIb alpha = biological target: T1, GPIb alpha (Homo sapiens, UniProt P07359); assay: Transient tether kinetics of VWF-A1 coated microspheres on surface-immobilized human platelets; assay type: binding; settings: VWF-A1 coated beads, wall shear stress 1 dyn cm^−2
T1 construct: enables evaluation of GPIb alpha in its native form (i.e. correct orientation and proper post-translational modification); endogenous in cells; host or cells: human platelets purified by gel filtration, immobilized on Fab fragments of mAb 7E3
T1 sequence (P07359 17-652): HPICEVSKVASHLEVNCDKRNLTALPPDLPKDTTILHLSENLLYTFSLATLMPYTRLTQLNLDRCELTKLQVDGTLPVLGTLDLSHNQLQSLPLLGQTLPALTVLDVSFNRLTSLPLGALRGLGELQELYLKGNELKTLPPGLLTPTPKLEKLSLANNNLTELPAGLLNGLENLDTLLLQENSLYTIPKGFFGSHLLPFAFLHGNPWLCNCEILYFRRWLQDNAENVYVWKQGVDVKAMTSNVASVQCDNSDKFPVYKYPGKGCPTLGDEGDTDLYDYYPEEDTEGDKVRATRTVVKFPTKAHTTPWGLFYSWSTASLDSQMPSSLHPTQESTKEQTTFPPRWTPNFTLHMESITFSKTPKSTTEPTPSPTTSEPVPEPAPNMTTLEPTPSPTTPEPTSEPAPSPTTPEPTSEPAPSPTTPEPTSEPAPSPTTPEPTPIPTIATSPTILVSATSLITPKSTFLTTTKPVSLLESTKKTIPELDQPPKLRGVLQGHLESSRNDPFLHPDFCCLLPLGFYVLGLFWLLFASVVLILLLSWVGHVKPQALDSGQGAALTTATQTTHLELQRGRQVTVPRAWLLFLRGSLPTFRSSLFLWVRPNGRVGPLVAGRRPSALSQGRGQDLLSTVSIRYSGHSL
Experimental: In flow assays involving protein-coated microspheres, human or murine platelets purified by gel filtration are incubated with 10 mM sodium azide (NaN3), 50 ng/ml prostaglandin E1, and 10 μm indomethacin (Sigma Immunochemicals, St. Louis, Mo.) to reduce the possibility of activation and potential alterations in expression and/or distribution of GPIb alpha on their surface. Platelets are subsequently allowed to settle in stasis on Fab fragments of monoclonal antibodies that recognize either human (i.e., mAb 7E3) or murine (i.e., mAb NAD-1) alpha IIb/β3 in order to form a reactive substrate. […] Platelet coverage of <10% will be bound in this manner can remain relatively unactivated for up to 30 min as evident by morphology on light microscopic examination (FIG. 7A) and lack of expression of P-selectin by fluorescence microscopy (FIG. 7B).
To reduce the possibility of multiple bond formation that would result in a prolongation in interaction times between the beads and immobilized platelets, the lowest site densities of VWF-A1 capable of supporting these brief interactions is used, a value we found to correspond to ˜30 molecules μm^2. […] The force acting on the tether bond was calculated from force balance equations as stated above and koff plotted as a function of these forces. […]

human platelets [2] = assay: Ex vivo platelet adhesion, human whole blood over immobilized plasma VWF or rVWF-A1, 1600 s^-1; assay type: cell-based; settings: for translocation velocities of human platelets: mean±s.e.m, n=4; for human platelet deposition as compared with same-species controls / human platelet accumulation on immobilized protein: human whole blood; for human platelet deposition as compared with same-species controls: 1600 s^-1, 4 min; for human platelet accumulation on immobilized protein: 1600 s^-1
Experimental: (§1) Experiments were performed in a parallel-plate flow chamber as previously described (Offermanns, S. (2006) Circ. Res. 99, 1293-1304). For studies involving plasma VWF, a polyclonal anti-VWF antibody (Dako) was absorbed overnight (4° C.) to a six well tissue culture plate. Subsequently, the plate was washed and non-specific interactions blocked by the addition of TBS containing 3% BSA, pH 7.4 (1 h, 37° C.). Human or murine plasma obtained from heparinized whole blood was added and the plates placed at 37° C. for an additional 2 h. Generation, purification, and surface-immobilization of recombinant VWF-A1 proteins was performed as previously described (Doggett, T. A. et al. Biophys. J. 83, 194-205 (2002)). Both human and murine VWF-A1 constructs consist of amino acid residues 1238 to 1471, with a single intra-disulfide bond formed between residues 1272 and 1458 and were generated in bacteria. Citrated whole blood (150 μl) collected via cardiac puncture from anesthetized homozygous VWF^1326R>H or WT mice or from venopuncture from human volunteers was perfused over the immobilized substrates at a wall shear rate of 1600 s^−1 for 4 min, followed by washing with Tyrode's buffer under the identical flow conditions. The number of platelets attached per unit area (0.07 mm^2) and translocation velocities were determined by off-line analysis (Image-Pro Plus, Media Cybernetics). For GPIbα inhibition studies, the function-blocking mAb 6D1 (20 μg/ml) or mAb SZ2 (20 μg/ml; Beckman Coulter) was added to anticoagulated human blood for 30 min prior to use. Experiments were performed in triplicate on two separate days. An ELISA was used to ensure equivalent coating concentration of plasma and recombinant proteins (Denis, C. et al. (1998) Proc. Natl. Acad. Sci. USA 95, 9524-9529).

murine platelets [3] = assay: Ristocetin-induced platelet aggregation assay (RIPA), murine platelet rich plasma; assay type: cell-based, mouse
Experimental: In a Ristocetin-induced platelet aggregation assays, platelet GPIb alpha binding to wild type human VWF or mouse VWF was analyzed in the absence or presence of ristocetin as described by Inbal, et al. (1993, Thromb. Haemost., 70:1058-1062). In this method, platelet rich plasma (PRP) is placed in a clear cuvette containing a stir bar and inserted into the aggregometer. Platelet aggregation is induced by the addition of ristocetin. […] In fact, only at concentrations of ≧2.5 mg/ml was there any evidence of murine platelet aggregation observed (˜30%, FIG. 10C).

human platelets [4] = settings: cited from earlier work
murine platelets [5] = assay: In vitro parallel plate flow chamber platelet adhesion on recombinant VWF-A1, 800 s^-1, murine platelets; assay type: cell-based, mouse; settings: wall shear rate 800 s^-1
Experimental: (§2) The protein was subsequently used in a series of in vitro flow chamber assays to assess function. Washed human or murine platelets (5×10^7/ml) were infused through a parallel plate flow chamber containing glass cover slips coated with either human VWF-A1 or mouse VWF-A1 protein (100 μg/ml final concentration) at a shear rate of 800 s^−1. After 5 min of continuous flow, adherent platelets were quantified.
In the case of the latter, the murine A1 fragment was inserted into pET-11b (Stratagene) and purified as previously described (53).
Support for this hypothesis is provided by mutagenesis studies. By analyzing the data obtained from the crystal structure of the murine VWF-A1 domain, we have identified several residues that may participate in interactions with GPIb alpha (FIG. 15C). Residue 1326 was initially chosen for study and was mutated to the corresponding amino acid at the identical location in its human counterpart (from Arg to His). Subsequently, the ability of murine and human platelets to interact with this mutant protein substrate was evaluated at a wall shear rate of 800 s^−1. Incorporation of a histidine for arginine at position 1326 in murine VWF-A1 reduced murine platelet adhesion by ˜5-fold and increased translocation velocities of cells by ˜7-fold as compared to the WT mouse protein (FIGS. 13A, 13B, 16A, and 16B). […]

human platelets [6] = assay: In vitro parallel plate flow chamber platelet adhesion on recombinant VWF-A1, 800 s^-1, human platelets; assay type: cell-based; settings: wall shear rate 800 s^-1
Experimental: as §2
Support for this hypothesis is provided by mutagenesis studies. By analyzing the data obtained from the crystal structure of the murine VWF-A1 domain, we have identified several residues that may participate in interactions with GPIb alpha (FIG. 15C). Residue 1326 was initially chosen for study and was mutated to the corresponding amino acid at the identical location in its human counterpart (from Arg to His). Subsequently, the ability of murine and human platelets to interact with this mutant protein substrate was evaluated at a wall shear rate of 800 s^−1. Incorporation of a histidine for arginine at position 1326 in murine VWF-A1 reduced murine platelet adhesion by ˜5-fold and increased translocation velocities of cells by ˜7-fold as compared to the WT mouse protein (FIGS. 13A, 13B, 16A, and 16B). […] These studies support the hypothesis that from a structural and functional standpoint, mouse and human VWF-A1 are very similar.

murine platelets [7] = assay: Ex vivo platelet adhesion, murine whole blood over immobilized plasma VWF or rVWF-A1, 1600 s^-1; assay type: cell-based, mouse
Experimental: as §1, with “For GPIbα inhibition studies, the function-blocking mAb 6D1 (20 μg/ml) or mAb SZ2 (20 μg/ml; Beckman Coulter) was added to anticoagulated human blood for 30 min prior to use. Experiments were performed in triplicate on two separate days. An ELISA was used to ensure equivalent coating concentration of plasma and recombinant proteins (Denis, C. et al. (1998) Proc. Natl. Acad. Sci. USA 95, 9524-9529).” left out

For CCCCS(=O)(=O)N[C@@H](Cc1ccc(OCCCCC2CCNCC2)cc1)C(=O)O [Tirofiban], the plasma half-life [1] is listed as “approximately 2 hours”.

In the case of COC(=O)[C@H](c1ccccc1Cl)N1CCc2sccc2C1 [clopidogrel], the “maximal effective dose to reduce thrombus size and delay its formation” value (thrombus formation) is listed as 50 mg/kg.

Work on “WT human VWF-A1: wild type recombinant human VWF-A1 domain” yielded a koff (GPIb alpha) of 6.5 s⁻¹.

In the case of “human plasma VWF: native human plasma VWF”, the “translocation velocities of human platelets” value (human platelets [2]) is reported as 3.2±0.1 μm/sec.

In the case of “murine plasma VWF: surface-bound wild type murine plasma VWF”, the “human platelet deposition as compared with same-species controls” value (human platelets [2]) is reported as 10%.

With “murine plasma VWF^1326R>H: plasma VWF obtained from mice homozygous for VWF^1326R>H” the “human platelet accumulation on immobilized protein” value (from here on “human platelet accumulation”) (human platelets [2]) was “comparable with its human counterpart” and the “translocation velocities of human platelets” value (human platelets [2]) was 3.5±0.1 μm/sec.

For ristocetin, the “effect on murine platelets at the concentration that agglutinates human platelets” value (murine platelets [3]; murine PRP, ristocetin ~1.0 mg/ml) is given as “no such effect; also recorded: had no effect”, the platelet aggregation (murine platelets [3]; murine PRP, ristocetin ≧2.5 mg/ml) is given as roughly 30% and the “concentration known to cause agglutination of human platelets” value (human platelets [4]) is given as roughly 1.0 mg/mL.

Molecule thrombin has a platelet aggregation (murine platelets [3]; incubation of murine PRP with thrombin) greater than 90%.

B1: murine rVWF-A1: recombinant A1 domain of murine VWF, residues 1238 to 1471 (protein)
chain: QEPGGLVAPPTDAPVSSTTPYVEDTPEPPLHNFYCSKLLDLVFLLDGSSMLSEAEFEVLKAFVVGMMERLHISQKRIRVAVVEYHDGSRAYLELKARKRPSELRRITSQIKYTGSQVASTSEVLKYTLFQIFGKIDRPEASHITLLLTASQEPPRMARNLVRYVQGLKKKKVIVIPVGIGPHASLKQIRLIEKQAPENKAFLLSGVDELEQRRDEIVSYLCDLAPEAPAPTQPP
modifications: left off: small tags and cut ends
In the case of B1, the “human platelet deposition as compared with same-species controls” value (human platelets [2]) is reported as 25%.

B2: murine rVWF-A1 1370S>G: murine rVWF-A1 with human residue at position 1370, printed S>G (protein)
chain: B1 chain with G133S
modifications: left off: small tags and cut ends
notes: murine rVWF-A1 with human residue at position 1370, printed S>G
In the case of B2, the “human platelet accumulation” value (human platelets [2]) is reported as “failed to promote the interaction”.

B3: murine rVWF-A1 1330E>G: murine rVWF-A1 with human residue at position 1330 (E>G) (protein)
chain: B1 chain with E93G
modifications: left off: small tags and cut ends
In the case of B3, the “human platelet accumulation” value (human platelets [2]) is reported as “failed to promote the interaction”.

B4: murine VWF-A1 1326R>H: recombinant mouse VWF-A1 domain with HIS for ARG at residue 1326 (protein)
chain: EDTPEPPLHNFYCSKLLDLVFLLDGSSMLSEAEFEVLKAFVVGMMERLHISQKRIRVAVVEYHDGSHAYLELKARKRPSELRRITSQIKYTGSQVASTSEVLKYTLFQIFGKIDRPEASHITLLLTASQEPPRMARNLVRYVQGLKKKKVIVIPVGIGPHASLKQIRLIEKQAPENKAFLLSGVDELEQRRDEIVSYLCDLAPEAPAPTQPPQVAHVTVSP
In the case of B4, the “increase of translocation velocities of murine platelets compared to WT mouse protein” value (murine platelets [5]) is reported as roughly 7 fold, the “reduction of murine platelet adhesion compared to WT mouse protein” value (murine platelets [5]) is reported as roughly 5 fold and the “human platelet interactions with the protein substrate” value (human platelets [6]) is reported as “comparable to that of WT human VWF-A1”. The “human platelet accumulation” value (human platelets [2]) was “comparable to its wild-type (WT) human counterpart” and the “reduction of mouse platelet adhesion” value (murine platelets [7]) was roughly 75%.
